ChEMBL document CHEMBL3525948, “Quantitative prediction of CYP2B6 induction by estradiol during pregnancy: potential explanation for increased methadone clearance during pregnancy” (Drug Metab Dispos, 2013)

How the values were obtained:
CYP2B6 = molecular target: T1, CYP2B6 (Homo sapiens, UniProt P20813); test: Induction of CYP2B6 activity in human donor hepatocytes assessed as hydroxybupropion formation after 48 hrs by LC/MS method; format: ADME, cell-based, Hepatocyte; conditions: probe bupropion (hydroxybupropion formation measured)
T1 sequence (P20813 whole entry): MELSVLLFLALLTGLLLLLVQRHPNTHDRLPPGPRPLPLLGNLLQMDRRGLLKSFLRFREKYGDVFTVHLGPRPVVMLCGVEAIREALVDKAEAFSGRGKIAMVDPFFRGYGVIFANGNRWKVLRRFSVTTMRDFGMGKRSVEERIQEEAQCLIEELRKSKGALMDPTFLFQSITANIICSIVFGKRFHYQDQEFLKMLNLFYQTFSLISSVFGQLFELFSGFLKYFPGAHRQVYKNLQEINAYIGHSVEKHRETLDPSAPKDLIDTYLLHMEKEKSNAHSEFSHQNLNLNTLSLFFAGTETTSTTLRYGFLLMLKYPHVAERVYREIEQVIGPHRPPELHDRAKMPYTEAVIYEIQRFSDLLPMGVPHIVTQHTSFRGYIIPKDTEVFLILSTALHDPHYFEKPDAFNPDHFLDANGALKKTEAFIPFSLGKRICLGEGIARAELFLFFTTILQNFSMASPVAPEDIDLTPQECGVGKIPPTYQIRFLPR

Hepatocyte = test: Induction of CYP2B6 mRNA expression in human donor hepatocytes after 48 hrs by real-time PCR method; format: ADME, cell-based

## NC(=O)N1c2ccccc2C=Cc2ccccc21 [CARBAMAZEPINE]
CYP2B6
  EC50 at 48 h: 145000 nM
Hepatocyte
  EC50: 26000 nM

## C[C@]12CC[C@@H]3c4ccc(O)cc4CC[C@H]3[C@@H]1CC[C@@H]2O [ESTRADIOL]
CYP2B6
  EC50 at 48 h: 4100 nM
Hepatocyte
  EC50: 1900 nM

## CO[C@H]1/C=C/O[C@@]2(C)Oc3c(C)c(O)c4c(O)c(c(/C=N/N5CCN(C)CC5)c(O)c4c3C2=O)NC(=O)/C(C)=C\C=C\[C@H](C)[C@H](O)[C@@H](C)[C@@H](O)[C@@H](C)[C@H](OC(C)=O)[C@@H]1C [RIFAMPIN]
CYP2B6
  EC50 at 48 h: 1300 nM
Hepatocyte
  EC50: 980 nM
